Reference: BindingDB's records for doi:10.1016/j.bmc.2018.04.029 (Shenyang Pharmaceutical University, 2018)

Experiment: Inhibition of Hepatitis C virus genotype 1b NS5B RNA-dependent-RNA polymerase assessed as reduction in viral replication after 72 hrs by indirect immunofluorescence assay

Compound | EC50
O=c1ccccn1Cc1ccc(-n2cc(Cn3ccc4nc(-c5ccccc5F)nc-4c3)nn2)cc1 | 93 nM
CS(=O)(=O)Nc1ccc(-n2cc(Cn3ccc4nc(-c5ccccc5F)nc-4c3)nn2)cc1 | 18 nM
O=c1ncccn1Cc1ccc(-n2cc(Cn3ccc4nc(-c5ccccc5F)nc-4c3)nn2)cc1 | 96 nM
Fc1ccccc1-c1nc2ccn(Cc3cn(Cc4cn5cccnc5n4)nn3)cc-2n1 | 21 nM
Fc1ccc(-n2cc(Cn3ccc4nc(-c5ccccc5F)nc-4c3)nn2)cc1 | 35 nM
Fc1ccccc1-c1nc2ccn(Cc3cn(-c4ccccc4)nn3)cc-2n1 | 23 nM
Cc1cc(C)n2cc(Cn3cc(Cn4ccc5nc(-c6ccccc6F)nc-5c4)nn3)nc2n1 | 37 nM

The remaining compounds from weak to strong by EC50, led by results:

EC50 | Compound
84 nM | Cc1cc(C)n2nc(Cn3cc(Cn4ccc5nc(-c6ccccc6F)nc-5c4)nn3)nc2n1
52 nM | Fc1ccccc1-c1nc2ccn(Cc3cn(-c4ccccc4F)nn3)cc-2n1
13 nM | COc1cccc(-n2cc(Cn3ccc4nc(-c5ccccc5F)nc-4c3)nn2)c1
1.2 nM | COc1ccc(-n2cc(Cn3ccc4nc(-c5ccccc5F)nc-4c3)nn2)cc1
